Experimental findings from ChEMBL document CHEMBL1201862, “PubChem BioAssay data set” (2004) are described below.

Test systems include HT-29; HCT-15; HOP-62; MOLT-4; SF-295; LOX IMVI; MDA-MB-435; SK-OV-3; IGROV-1; K562; HCC 2998; OVCAR-4; SNB-75; ACHN; A498; SN12C; SNB-19; NCI-H522; RXF 393; HL-60.
What all share (test): NCI tumour cell line growth inhibition, 48 h

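All cell lines were grown in 96-well plates and treated with compound for 48 hours. At the GI50, growth is halved.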 Calls of active or inactive are those of the source. No stated cut-off is given here; in the data, active = GI50 up to about 1.1 µM and inactive = higher.

As to `CCCC(=O)O[C@H]1C=C2C[C@@]34SS[C@]5(CC6=C[C@H](OC(C)=O)[C@@H]7O[C@@H]7[C@H]6N5C3=O)C(=O)N4[C@@H]2[C@H]2O[C@H]21`, the GI50 in the assay on HT-29 is 0.00569 µM (active); in the assay with HCT-15 it was 0.0224 µM; in the assay on HOP-62, 0.01 µM (active); in the assay with MOLT-4, 0.00904 µM (active); in the assay on SF-295 it was 0.329 µM (active); with LOX IMVI, 0.0208 µM (active). The GI50 in the assay on MDA-MB-435 was 0.0127 µM (active); in the assay with SK-OV-3, 0.0569 µM (active); in the assay on IGROV-1, 0.0168 µM (active); in the assay with K562, 0.00923 µM (active); with HCC 2998, 0.00923 µM (active); with OVCAR-4 it was 0.0197 µM (active). Also, the GI50 in the assay with SNB-75 was 0.0353 µM (active); in the assay with ACHN, 0.0186 µM (active); in the assay with A498 it was 0.0279 µM (active); in the assay on SN12C, 0.00567 µM (active); in the assay with SNB-19 it was 0.0126 µM (active); in the assay on NCI-H522 it was < 0.005 µM (active). Further, the GI50 in the assay on RXF 393 was 0.0205 µM (active); in the assay on HL-60 it was 0.0644 µM (active).

Turning to `FC1CCN(C2(c3cccs3)CCCCC2)CC1`, the GI50 with HT-29 was 47.8 µM (inactive); in the assay on HCT-15, over 100 µM; with HOP-62 it was > 100 µM (inactive); in the assay with MOLT-4, > 100 µM (inactive); with SF-295, > 100 µM (inactive); in the assay with LOX IMVI it was 96.6 µM (inactive). Besides, the GI50 is > 100 µM (inactive) in the assay with MDA-MB-435; > 100 µM (inactive) in the assay on SK-OV-3; > 100 µM (inactive) with IGROV-1; > 100 µM (inactive) with K562; 27.2 µM (inactive) with HCC 2998; > 100 µM (inactive) in the assay on OVCAR-4. Moreover, the GI50 with SNB-75, in the assay with ACHN, with A498, with SN12C, in the assay with SNB-19 and in the assay with NCI-H522 was > 100 µM (inactive) in each case. For the same molecule, the GI50 with RXF 393 and with HL-60 was > 100 µM (inactive) each time.

For `CCC(=O)C1(N2CCOCC2)CCN(CCCC(=O)c2ccc(F)cc2)CC1`, the GI50 in the assay on HT-29 is 39.2 µM (inactive); in the assay on HCT-15, over 100 µM; in the assay with HOP-62 it was > 100 µM (inactive); with MOLT-4, > 100 µM (inactive); in the assay with SF-295, > 100 µM (inactive); with LOX IMVI, > 100 µM (inactive). Also, the GI50 in the assay with MDA-MB-435, in the assay on SK-OV-3, in the assay on IGROV-1, in the assay on K562, in the assay on HCC 2998 and in the assay with OVCAR-4 was > 100 µM (inactive) throughout. The GI50 with SNB-75, in the assay with ACHN, in the assay with A498, in the assay on SN12C, in the assay with SNB-19 and in the assay with NCI-H522 was > 100 µM (inactive) in each case. Besides, the GI50 with RXF 393 and in the assay with HL-60 was > 100 µM (inactive) in each case.

Consider `O=C1NC(NNc2ccccc2)=N/C1=C\c1ccccc1O`, for which the GI50 in the assay on HT-29 is 61 µM (inactive); in the assay on HCT-15, 44.2 µM; with HOP-62, 48.4 µM (inactive); with MOLT-4, 51.6 µM (inactive); in the assay on SF-295 it was 50.2 µM (inactive); in the assay with LOX IMVI it was > 100 µM (inactive). Moreover, the GI50 in the assay on MDA-MB-435 was 71.1 µM (inactive); in the assay with SK-OV-3, > 100 µM (inactive); in the assay on IGROV-1, 89.1 µM (inactive); in the assay with K562, 50.2 µM (inactive); in the assay on HCC 2998 it was 80.9 µM (inactive); with OVCAR-4, 50.9 µM (inactive). Further, the GI50 in the assay with SNB-75 was 43.4 µM (inactive); in the assay with ACHN, 49.1 µM (inactive); in the assay with A498, 45.9 µM (inactive); with SN12C, 73.6 µM (inactive); in the assay with SNB-19, > 100 µM (inactive); in the assay on NCI-H522, 80.4 µM (inactive). For the same molecule, the GI50 in the assay on RXF 393 was 40 µM (inactive); in the assay on HL-60 it was 28.8 µM (inactive).

Turning to `O=C(O)C1CC2C3CCC2C1C3=O` (stereo not given), the GI50 in the assay with HT-29 was > 100 µM (inactive); with HCT-15, over 100 µM; in the assay on HOP-62, > 100 µM (inactive); with MOLT-4, > 100 µM (inactive); in the assay on SF-295 it was > 100 µM (inactive); in the assay on LOX IMVI, > 100 µM (inactive). In addition, the GI50 in the assay on MDA-MB-435, in the assay with SK-OV-3, with IGROV-1, in the assay with K562, in the assay with HCC 2998 and with OVCAR-4 was > 100 µM (inactive) throughout. In addition, the GI50 in the assay on SNB-75, with ACHN, in the assay on A498, in the assay on SN12C, in the assay on SNB-19 and in the assay on NCI-H522 was > 100 µM (inactive) in each case. The GI50 in the assay on RXF 393 and in the assay with HL-60 was > 100 µM (inactive) throughout.

As for `FC(F)(F)C1(C(F)(F)F)C2CCC3(CC(F)(F)C(F)(F)S3)C1C2` (stereo not given), the GI50 was 29 µM (inactive) in the assay on HT-29; 62.8 µM in the assay with HCT-15; 48.4 µM (inactive) in the assay with HOP-62; 23.4 µM (inactive) in the assay with MOLT-4; 55.1 µM (inactive) in the assay on SF-295; 25.8 µM (inactive) in the assay on LOX IMVI. For the same molecule, the GI50 was 86.7 µM (inactive) in the assay on MDA-MB-435; > 100 µM (inactive) in the assay with SK-OV-3; 87.7 µM (inactive) in the assay with IGROV-1; 36 µM (inactive) in the assay on K562; > 100 µM (inactive) in the assay on HCC 2998; 80.5 µM (inactive) with OVCAR-4. Also, the GI50 in the assay on SNB-75 is 61.9 µM (inactive); with ACHN, 37.8 µM (inactive); in the assay with A498, 57 µM (inactive); in the assay with SN12C it was > 100 µM (inactive); in the assay with SNB-19 it was > 100 µM (inactive); with NCI-H522, 56.2 µM (inactive). In addition, the GI50 with RXF 393 is 31.8 µM (inactive); in the assay with HL-60, 27.9 µM (inactive).

Take `C/N=C(\Nc1cccc(C(F)(F)F)c1)SCc1ccc(N=C=S)cc1`: the GI50 is 15.6 µM (inactive) in the assay on HT-29; 7.14 µM in the assay on HCT-15; 17.5 µM (inactive) with HOP-62; 11.5 µM (inactive) in the assay with MOLT-4; 16 µM (inactive) in the assay with SF-295; 4.66 µM (inactive) in the assay with LOX IMVI. For the same molecule, the GI50 in the assay with MDA-MB-435 is 13.8 µM (inactive); with SK-OV-3, 20.2 µM (inactive); with IGROV-1, 16.4 µM (inactive); in the assay with K562 it was 20 µM (inactive); in the assay on HCC 2998 it was 15.6 µM (inactive); with OVCAR-4, 13.3 µM (inactive). Moreover, the GI50 in the assay with SNB-75 was 14.2 µM (inactive); with ACHN, 15.2 µM (inactive); in the assay on A498, 19.9 µM (inactive); with SN12C, 13.8 µM (inactive); with SNB-19, 14.9 µM (inactive); with NCI-H522, 10.4 µM (inactive). In addition, the GI50 is 13.4 µM (inactive) with RXF 393 and 40.6 µM (inactive) in the assay with HL-60.

In the case of `CCOC(=O)/C(=C\c1ccc(F)cc1)C(C)=O`, the GI50 with HT-29 is 24.4 µM (inactive); in the assay on HCT-15, 20.7 µM; with HOP-62 it was 38.9 µM (inactive); in the assay with MOLT-4 it was 26.5 µM (inactive); with SF-295, 29.5 µM (inactive); in the assay with LOX IMVI it was 17.5 µM (inactive). Besides, the GI50 was 30.1 µM (inactive) in the assay on MDA-MB-435; 35 µM (inactive) in the assay on SK-OV-3; 18.2 µM (inactive) with IGROV-1; 30.3 µM (inactive) with K562; 13.5 µM (inactive) in the assay with HCC 2998; 28 µM (inactive) in the assay with OVCAR-4. The GI50 in the assay on SNB-75 was 25.1 µM (inactive); in the assay on ACHN, 21.6 µM (inactive); in the assay on A498, 17.8 µM (inactive); with SN12C, 63 µM (inactive); in the assay on SNB-19 it was 33.8 µM (inactive); in the assay on NCI-H522 it was 14.3 µM (inactive). For the same molecule, the values for the GI50 in the assay on RXF 393 and with HL-60 were 17 µM (inactive) and 19.5 µM (inactive), respectively.

On to `CCCCCCCCCCCCCCCC(=O)N(CCCCCCCCCCC(=O)O)CC(O)C(O)C(OC1OC(CO)C(O)C(O)C1O)C(O)CO` (stereo not given), for which the GI50 is 22.8 µM (inactive) with HT-29; 41.2 µM with HCT-15; 23.5 µM (inactive) in the assay with HOP-62; 28.4 µM (inactive) in the assay with MOLT-4; 15.6 µM (inactive) in the assay on SF-295; 19.5 µM (inactive) in the assay on LOX IMVI. The GI50 is 49.4 µM (inactive) in the assay on MDA-MB-435; 54.7 µM (inactive) in the assay with SK-OV-3; 60.8 µM (inactive) in the assay with IGROV-1; 22.5 µM (inactive) in the assay on K562; 21.1 µM (inactive) with HCC 2998; 60.3 µM (inactive) in the assay on OVCAR-4. Further, the GI50 with SNB-75 is 38.9 µM (inactive); with ACHN, > 100 µM (inactive); in the assay on A498, > 100 µM (inactive); in the assay with SN12C it was 20.5 µM (inactive); in the assay with SNB-19, 24.5 µM (inactive); in the assay on NCI-H522, 39.3 µM (inactive). The GI50 with RXF 393 is 48.1 µM (inactive); in the assay on HL-60 it was 22.6 µM (inactive).

As for `O=C1c2cccnc2-c2nccc3ccnc1c23`, the GI50 is 0.575 µM (active) in the assay on HT-29; 0.366 µM in the assay on HCT-15; 3.53 µM (inactive) in the assay on HOP-62; 0.413 µM (active) with MOLT-4; 1.29 µM (inactive) with SF-295; 0.418 µM (active) in the assay on LOX IMVI. Further, the GI50 with MDA-MB-435 is 0.219 µM (active); with SK-OV-3 it was 1.49 µM (inactive); in the assay with IGROV-1, 0.548 µM (active); in the assay with K562, 0.0456 µM (active); with HCC 2998, 1.4 µM (inactive); with OVCAR-4 it was 1.91 µM (inactive). Further, the GI50 was 1.08 µM (active) in the assay with SNB-75; 0.158 µM (active) in the assay on ACHN; 5 µM (inactive) in the assay with A498; 1.04 µM (active) with SN12C; 1.03 µM (active) with SNB-19; 0.163 µM (active) in the assay on NCI-H522. For the same molecule, the results for the GI50 with RXF 393 and with HL-60 were 1.13 µM (inactive) and 0.0248 µM (active), respectively.
